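Cultured in 96-well plates, cells were exposed to test compound for 48 hours across five concentrations. The concentration for 50% growth inhibition is given as GI50. TGI marks complete inhibition of growth.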
Legend:
Experiment in all cases: growth of human tumour cells (NCI), 48 h
TK-10 renal = system: TK-10 renal
NCI-H226 lung = system: NCI-H226 lung
M14 melanoma = system: M14 melanoma
K-562 leukemia = system: K-562 leukemia
HCC-2998 colon = system: HCC-2998 colon
T-47D breast = system: T-47D breast
UACC-62 melanoma = system: UACC-62 melanoma
HCT-116 colon = system: HCT-116 colon
CAKI-1 renal = system: CAKI-1 renal
OVCAR-5 ovarian = system: OVCAR-5 ovarian
786-0 renal = system: 786-0 renal
OVCAR-8 ovarian = system: OVCAR-8 ovarian
SN12C renal = system: SN12C renal
LOX IMVI melanoma = system: LOX IMVI melanoma
PC-3 prostate = system: PC-3 prostate
SF-539 CNS = system: SF-539 CNS
SK-MEL-5 melanoma = system: SK-MEL-5 melanoma
HOP-92 NSCLC = system: HOP-92 NSCLC
A498 renal = system: A498 renal
HOP-62 NSCLC = system: HOP-62 NSCLC
NCI-H23 lung = system: NCI-H23 lung
SW-620 colon = system: SW-620 colon
RPMI-8226 leukemia = system: RPMI-8226 leukemia
SF-295 CNS = system: SF-295 CNS
UO-31 renal = system: UO-31 renal
NCI-H522 lung = system: NCI-H522 lung
COLO 205 colon = system: COLO 205 colon
ACHN renal = system: ACHN renal
DU-145 prostate = system: DU-145 prostate

Q: What does the source list for `C=CC(=O)N1CCN(c2ccc3nc4c(nc3c2C(F)(F)F)C(=O)c2ncccc2C4=O)CC1`?
A: GI50 (TK-10 renal): 18.6 µM; TGI (TK-10 renal): 97.6 µM; GI50 (NCI-H226 lung): 10.9 µM; TGI (NCI-H226 lung): 27.7 µM; GI50 (M14 melanoma): 2.53 µM; TGI (M14 melanoma): 12.3 µM; GI50 (K-562 leukemia): 4.4 µM; TGI (K-562 leukemia): > 98 µM; GI50 (HCC-2998 colon): 5.44 µM; TGI (HCC-2998 colon): 18.1 µM; GI50 (T-47D breast): 2.66 µM; TGI (T-47D breast): 9.9 µM; GI50 (UACC-62 melanoma): 2.05 µM; TGI (UACC-62 melanoma): 5.31 µM; GI50 (HCT-116 colon): 2.67 µM; TGI (HCT-116 colon): 7.4 µM; GI50 (CAKI-1 renal): 9.74 µM; TGI (CAKI-1 renal): 38 µM; GI50 (OVCAR-5 ovarian): 11.8 µM; TGI (OVCAR-5 ovarian): 25.2 µM; GI50 (786-0 renal): 9.96 µM; TGI (786-0 renal): 66.6 µM; GI50 (OVCAR-8 ovarian): 2.99 µM; TGI (OVCAR-8 ovarian): 11.6 µM; GI50 (SN12C renal): 2.27 µM; TGI (SN12C renal): 8.31 µM; GI50 (LOX IMVI melanoma): 2.09 µM; TGI (LOX IMVI melanoma): 6.37 µM; GI50 (PC-3 prostate): 2.52 µM; TGI (PC-3 prostate): > 98 µM; GI50 (SF-539 CNS): 3.39 µM; TGI (SF-539 CNS): 11.7 µM; GI50 (SK-MEL-5 melanoma): 1.39 µM; TGI (SK-MEL-5 melanoma): 2.67 µM; GI50 (HOP-92 NSCLC): 19 µM; TGI (HOP-92 NSCLC): 57.1 µM; GI50 (A498 renal): 15.6 µM; TGI (A498 renal): 29.8 µM; GI50 (HOP-62 NSCLC): 10.9 µM; TGI (HOP-62 NSCLC): 39.8 µM; GI50 (NCI-H23 lung): 1.97 µM; TGI (NCI-H23 lung): 9.88 µM; GI50 (SW-620 colon): 2.88 µM; TGI (SW-620 colon): 11 µM; GI50 (RPMI-8226 leukemia): 3.1 µM; TGI (RPMI-8226 leukemia): 40.7 µM; GI50 (SF-295 CNS): 4.1 µM; TGI (SF-295 CNS): 16.9 µM; GI50 (UO-31 renal): 11 µM; TGI (UO-31 renal): 25.7 µM; GI50 (NCI-H522 lung): 9.95 µM; TGI (NCI-H522 lung): 23.8 µM; GI50 (COLO 205 colon): 2.42 µM; TGI (COLO 205 colon): 7.83 µM; GI50 (ACHN renal): 6.41 µM; TGI (ACHN renal): 20.5 µM; GI50 (DU-145 prostate): 6.16 µM
